Laboratory results: US6737406B1, “Cryptic peptides and method for their identification” (Circassia, Ltd., priority 1996, dated 2004)

What was measured:
[1] = tested on: T lymphocytes; experiment: Inhibition of T cell proliferation to FC1P peptides, tritiated thymidine incorporation (Example 5); type: cell-based; details: added at 10^−6M or 10^−9M; freshly isolated T lymphocytes cultured with FC1P
Procedure: Freshly isolated T lymphocytes were cultured in vitro with concentrations of FC1P peptides, previously determined as being optimal for the induction of proliferative and/or other responses in these cells. To certain of the culture wells were added, the glucocorticosteroid Dexamethazone or fluticazone, these were added to cultures at dilutions of 10^−6M or 10^−9M. After culture, cells were labelled with tritiated thymidine to enable quantification of DNA synthesis and thus cellular proliferation.

[2] = tested on: volunteer cat-allergic asthmatic; experiment: Intradermal injection of FC1P into a volunteer cat-allergic asthmatic, lung function (Example 4); type: in vivo, human; details: 40 μg FC1P intradermally into each forearm
Procedure: 40 μg of highly purified FC1P peptides was injected intradermally into each forearm of a volunteer cat-allergic asthmatic. […] The drop in FEV1 was reversed by the administration of β2 agonist and inhaled corticosteroid at 8 hours. The results of this are shown diagrammatically in FIG. 6.

[3] = tested on: peripheral blood mononuclear cells; experiment: Primary proliferative response of freshly isolated PBMC to FC1P (Example 3); type: cell-based, human; details: 10^5 cells per well, 6 days, cat allergic asthmatics (CAA) compared with non-cat allergic asthmatics (NCA)
Procedure: Freshly isolated peripheral blood mononuclear cells were cultured at 10^5 cells per well for 6 days prior to labelling with tritiated thymidine for measurement of cellular proliferation.

Row | Compound | inhibition of T cell proliferation to FC1P peptides (tritiated thymidine incorporation) [1] | late-phase asthmatic reaction ([2]; cat-allergic asthmatic) | time of late-phase asthmatic reaction after administration ([2]; cat-allergic asthmatic) | Lung function (quantified as FEV1) ([2]; over the next several hours) | primary proliferative responses (cellular proliferation, tritiated thymidine) [3]
1 | C[C@@H]1C[C@H]2[C@@H]3CCC4=CC(=O)C=C[C@]4(C)[C@@]3(F)[C@@H](O)C[C@]2(C)[C@@]1(O)C(=O)CO [dexamethazone] | inhibition of T cell proliferation | – | – | – | –
2 | FC1P: three synthetic peptides derived from the sequence of Fel d I, collectively FC1P (SEQ ID NO:23, 5 and 24) (chain 1 LFLTGTPDEYVEQVAQY; chain 2 EQVAQYKALPVVLENA; chain 3 KALPVVLENARILKNCV; listed as Felis domesticus) | – | induced an isolated late-phase asrimatic reaction | approximately three | fell and remained low | greater primary proliferative responses
3 | C[C@@H]1C[C@H]2[C@@H]3C[C@H](F)C4=CC(=O)C=C[C@]4(C)[C@@]3(F)[C@@H](O)C[C@]2(C)[C@@]1(O)C(=O)SCF [fluticazone] | inhibition of T cell proliferation | – | – | – | –
